Test results: patent publication US9193884B2, “Ink composition” (Hewlett-Packard Development Company, L.P., priority 2011, dated 2015)

Columns and labels:
[1] = cited from earlier work
[2] = limiting area and limiting radius of fatty acids; format: physicochemical
[3] = solubility of lithium fatty acid salts; format: physicochemical

Limiting radius [2] [Å] | Structure (SMILES) | pKa [1] | solubility [3]
3.61 | CCCCCCCC/C=C\CCCCCCCC(=O)O [Oleic, oleic acid] | 9.85 | 
2.52 | CCCCCCCCCCCCCCCCCC(=O)O [Stearic, stearic acid] |  | 

More lines, now with the values behind:

Structure (SMILES) | Limiting radius [2] [Å] | pKa [1] | solubility [3]
CCCCCCCC/C=C/CCCCCCCC(=O)O [Elaidic, elaidic acid] | 3.24 | 9.95 | 
CCCCC/C=C\C/C=C\CCCCCCCC(=O)O [Linoleic, linoleic acid] | 3.91 |  | 
CCCCCCCCCCCC(=O)[O-].[Li+] [dodecanoate, lithium dodecanoate] |  |  | higher solubility than that of oleic acid
